Laboratory results published in patent publication US20260271931A1, “HERBICIDAL MIXTURES” (Bayer Aktiengesellschaft, priority 2023, published 2026).
Read-outs that look alike come from different tables or passages of the source.

Columns and labels:
Assay type in all cases: in vivo
Eleusine indica (ELEIN) = test: Post-emergence action against weeds, greenhouse pot test, visual rating: Eleusine indica; conditions: for pest or weed control at 150 g/ha: 150 g a.i./ha; for pest or weed control at 15 g/ha: 15 g a.i./ha
Method: (§1) When the observed efficacies already exceed the formal sum total of the values of the tests with individual applications, they also exceed the expected value according to Colby, which is calculated using the formula below and is likewise regarded as an indication of synergism (cf. S. R. Colby; in Weeds 15 (1967) pp. 20 to 22):
(§2) where: • A=efficacy of the active ingredient (A) in % at an application rate of a [g a.i./ha]; • B=efficacy of the active ingredient (B) in % at an application rate of b [g a.i./ha]; • E^C=expected value of the effect of the combination (A)+(B) in % at the combined application rate a+b [g a.i./ha].
(§3) The observed values (E^A) from the experiments, given suitable low dosages, show an effect of the combinations exceeding the expected values according to Colby (E^C) (Δ).
(§4) Seeds of mono- and dicotyledonous weeds were placed in sandy loam in pots, covered with soil and grown in a greenhouse under good growth conditions (temperature, air humidity, water supply). Two to three weeks after sowing, the test plants were treated at the two- to four-leaf stage with the compositions of the invention. The compositions of the invention, formulated as spray powders or as emulsion concentrates, were sprayed onto the green parts of the plant in various dosages with an application rate equivalent to […] of water. After the test plants had been kept in the greenhouse under optimum growth conditions for 3 weeks, the activity of the preparations was rated visually in comparison to untreated controls.
(§5) 100% efficacy means complete control of the particular weed tested.
(§6) 0% efficacy means zero control of the particular weed tested.
(§7) Expected values according to Colby are reported under E.
(§8) The exceedance of the expected value E is given as Δ (=synergistic effect).
(§9) The rating period is reported in days after application (DAT).

[1] = test system: Echinochloa crus-galli (ECHCG); test: Post-emergence action against weeds, greenhouse pot test, visual rating: Echinochloa crus-galli
[2] = test system: Brachiaria platyfylla (BRAPP); test: Post-emergence action against weeds, greenhouse pot test, visual rating: Brachiaria platyfylla
Method: as §1, §2, §3, §4, §5, §6, §7, §8, §9

Kochia scoparia (KCHSC) = test: Post-emergence action against weeds, greenhouse pot test, visual rating: Kochia scoparia
Bidens pilosa (BIDPI) = test: Post-emergence action against weeds, greenhouse pot test, visual rating: Bidens pilosa
Lolium rigidum (LOLRI) = test: Post-emergence action against weeds, greenhouse pot test, visual rating: Lolium rigidum
[3] = test system: Sorghum halepense (SORHA); test: Post-emergence action against weeds, greenhouse pot test, visual rating: Sorghum halepense
Method: as §1, §2, §3, §4, §5, §6, §7, §8, §9

[4] = test system: Pharbitis purpurea (PHBPU); test: Post-emergence action against weeds, greenhouse pot test, visual rating: Pharbitis purpurea; conditions: 50 g a.i./ha
Method: as §1, §2, §3, §4, §5, §6, §7, §8, §9

Centaurea cyanus (CENCY) = test: Post-emergence action against weeds, greenhouse pot test, visual rating: Centaurea cyanus; conditions: 50 g a.i./ha
Method: as §1, §2, §3, §4, §5, §6, §7, §8, §9

Avena fatua (AVEFA) = test: Post-emergence action against weeds, greenhouse pot test, visual rating: Avena fatua; conditions: 10 DAT
[5] = Eleusine indica, post-emergence, 240 h, read-out: Herbicidal effect [%] on ELEIN 10 DAT
[6] = Eleusine indica, post-emergence, 504 h, read-out: Herbicidal effect [%] on ELEIN 21 DAT
[7] = post-emergence, 240 h, read-out: Herbicidal effect [%] on BRAPP 10 DAT
[8] = Bassia scoparia, post-emergence, 504 h, read-out: Herbicidal effect [%] on KCHSC 21 DAT
[9] = Lolium rigidum, 504 h, read-out: Herbicidal effect [%] on LOLRI 21 DAT
[10] = Eleusine indica, post-emergence, 240 h, 50 g a.i./ha, read-out: Herbicidal effect [%] on ELEIN 10 DAT
[11] = Eleusine indica, post-emergence, 504 h, 50 g a.i./ha, read-out: Herbicidal effect [%] on ELEIN 21 DAT

## CP(=O)(O)CCC(N)C(=O)O (stereo not drawn) [Glufosinate, glufosinate]
Eleusine indica (ELEIN); [5]
  pest or weed control at 30 g/ha: 10%

## COc1c(Cl)ccc(Cl)c1C(=O)O [Dicamba, dicamba]
[1]; 5 g a.i./ha
  Herbicidal effect [%] on ECHCG 10 DAT: 0%
Eleusine indica (ELEIN); [5]
  pest or weed control at 5 g/ha: 0%
Eleusine indica (ELEIN); [6]
  pest or weed control at 5 g/ha: 0%
[2]; [7]
  pest or weed control at 5 g/ha: 0%
[2]; post-emergence, 504 h, read-out: Herbicidal effect [%] on BRAPP 21 DAT
  pest or weed control at 5 g/ha: 0%
Kochia scoparia (KCHSC); 5 g a.i./ha
  Herbicidal effect [%] on KCHSC 10 DAT: 20%
Kochia scoparia (KCHSC); [8]
  pest or weed control at 5 g/ha: 20%
Bidens pilosa (BIDPI); 5 g a.i./ha
  Herbicidal effect [%] on BIDPI 10 DAT: 30%
  Herbicidal effect [%] on BIDPI 21 DAT: 40%
Lolium rigidum (LOLRI); [9]
  pest or weed control at 5 g/ha: 0%

## CCOCN(C(=O)CCl)c1c(C)cccc1CC [Acetochlor, acetochlor]
Eleusine indica (ELEIN); [5]
  pest or weed control at 150 g/ha: 80%
Eleusine indica (ELEIN); [6]
  pest or weed control at 150 g/ha: 90%
Lolium rigidum (LOLRI); 150 g a.i./ha
  Herbicidal effect [%] on LOLRI 10 DAT: 40%
Lolium rigidum (LOLRI); Lolium rigidum, 504 h, 150 g a.i./ha, 21 DAT, read-out: Herbicidal effect [%] on LOLRI 21 DAT
  pest or weed control at 150 g/ha: 0%

## Cn1nc(C(F)(F)F)c(CS(=O)(=O)C2=NOC(C)(C)C2)c1OC(F)F [Pyroxasulfone, pyroxasulfone]
Eleusine indica (ELEIN); [5]
  pest or weed control at 15 g/ha: 10%
Eleusine indica (ELEIN); [6]
  pest or weed control at 15 g/ha: 60%
[2]; post-emergence, 240 h, 15 g a.i./ha, read-out: Herbicidal effect [%] on BRAPP 10 DAT
  pest or weed control at 15 g/ha: 20%
Kochia scoparia (KCHSC); Bassia scoparia, post-emergence, 504 h, 15 g a.i./ha, read-out: Herbicidal effect [%] on KCHSC 21 DAT
  pest or weed control at 15 g/ha: 0%

## CCNc1nc(Cl)nc(NC(C)(C)C)n1 [Terbuthylazine, terbuthylazine]
[1]; 50 g a.i./ha
  Herbicidal effect [%] on ECHCG 10 DAT: 10%
  Herbicidal effect [%] on ECHCG 21 DAT: 0%
Eleusine indica (ELEIN); [10]
  pest or weed control at 50 g/ha: 85%
Eleusine indica (ELEIN); [11]
  pest or weed control at 50 g/ha: 70%
[2]; post-emergence, 240 h, 50 g a.i./ha, read-out: Herbicidal effect [%] on BRAPP 10 DAT
  pest or weed control at 50 g/ha: 10%
Lolium rigidum (LOLRI); Lolium rigidum, 504 h, 50 g a.i./ha, 21 DAT, read-out: Herbicidal effect [%] on LOLRI 21 DAT
  pest or weed control at 50 g/ha: 0%

## C[n+]1ccc(-c2cc[n+](C)cc2)cc1 [Paraquat, paraquat]
Eleusine indica (ELEIN); [5]
  pest or weed control at 40 g/ha: 40%
Eleusine indica (ELEIN); [6]
  pest or weed control at 40 g/ha: 10%
Lolium rigidum (LOLRI); [9]
  pest or weed control at 40 g/ha: 10%

## CCc1cccc(C)c1N(C(=O)CCl)[C@@H](C)COC [S-Metolachlor, S-metolachlor]
[1]; 50 g a.i./ha
  Herbicidal effect [%] on ECHCG 21 DAT: 30%
Eleusine indica (ELEIN); 50 g a.i./ha
  Herbicidal effect [%] on ELEIN 10 DAT: 10%
  Herbicidal effect [%] on ELEIN 21 DAT: 10%
[3]; 50 g a.i./ha
  Herbicidal effect [%] on SORHA 10 DAT: 10%
  Herbicidal effect [%] on SORHA 21 DAT: 10%
[4]
  Herbicidal effect [%] on PHBPU 21 DAT: 10%
Centaurea cyanus (CENCY)
  Herbicidal effect [%] on CENCY 10 DAT: 0%
  Herbicidal effect [%] on CENCY 21 DAT: 10%
[2]; 50 g a.i./ha
  Herbicidal effect [%] on BRAPP 10 DAT: 30%
  Herbicidal effect [%] on BRAPP 21 DAT: 30%
Avena fatua (AVEFA); 50 g a.i./ha
  Herbicidal effect [%] on AVEFA 10 DAT: 10%
Kochia scoparia (KCHSC); 50 g a.i./ha
  Herbicidal effect [%] on KCHSC 21 DAT: 10%
Bidens pilosa (BIDPI); 50 g a.i./ha
  Herbicidal effect [%] on BIDPI 21 DAT: 20%
Lolium rigidum (LOLRI); 50 g a.i./ha, 21 DAT
  Herbicidal effect [%] on LOLRI 21 DAT: 0%

## CCNc1nc(Cl)nc(NC(C)C)n1 [Atrazine, atrazine]
Eleusine indica (ELEIN); [10]
  pest or weed control at 50 g/ha: 30%
Eleusine indica (ELEIN); [11]
  pest or weed control at 50 g/ha: 0%
[4]; 10 DAT
  Herbicidal effect [%] on PHBPU 10 DAT: 30%
[4]
  Herbicidal effect [%] on PHBPU 21 DAT: 20%

## CCSC(C)CC1CC(=O)C(/C(CC)=N/OC/C=C/Cl)=C(O)C1 (stereo not drawn) [Clethodim, clethodim]
Eleusine indica (ELEIN); [6]
  pest or weed control at 8 g/ha: 30%
[3]; 8 g a.i./ha
  Herbicidal effect [%] on SORHA 10 DAT: 80%
[2]; [7]
  pest or weed control at 8 g/ha: 85%
Kochia scoparia (KCHSC); [8]
  pest or weed control at 8 g/ha: 0%
Lolium rigidum (LOLRI); 8 g a.i./ha
  Herbicidal effect [%] on LOLRI 10 DAT: 80%

## O=C(Nc1ccc(F)cc1F)c1cccnc1Oc1cccc(C(F)(F)F)c1 [Diflufenican, diflufenican]
Eleusine indica (ELEIN); Eleusine indica, post-emergence, 504 h, 120 g a.i./ha, read-out: Herbicidal effect [%] on ELEIN 21 DAT
  pest or weed control at 120 g/ha: 10%
[3]; 120 g a.i./ha
  Herbicidal effect [%] on SORHA 21 DAT: 0%
Avena fatua (AVEFA); Avena fatua, 240 h, 120 g a.i./ha, read-out: Herbicidal effect [%] on AVEFA 10 DAT
  pest or weed control at 120 g/ha: 10%
